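Tested at 5 concentrations; 48 h exposure; 96-well plates; endpoints linearly interpolated, else capped at highest concentration. GI50 is the concentration that inhibits growth by half.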 Active and inactive are the calls of the source. Cut-off read from the data, not from the text of the source: active = GI50 up to about 1.1 µM and inactive = higher.
What was measured:
Assay in all cases: NCI-60 cell line screen, 48 h
HL-60 = system: HL-60
CCRF-CEM = system: CCRF-CEM
OVCAR-3 = system: OVCAR-3
KM12 = system: KM12
SF-268 = system: SF-268
A498 = system: A498
OVCAR-8 = system: OVCAR-8
UO-31 = system: UO-31
SK-MEL-2 = system: SK-MEL-2
SNB-75 = system: SNB-75
MDA-N = system: MDA-N
HT-29 = system: HT-29
UACC-257 = system: UACC-257
NCI-H460 = system: NCI-H460
MOLT-4 = system: MOLT-4
CAKI-1 = system: CAKI-1
U-251 = system: U-251
IGROV-1 = system: IGROV-1
K562 = system: K562
MDA-MB-435 = system: MDA-MB-435

Measured: GI50

CCCCCCCCCCCCCCCCCCNC(=O)C(N)Cc1ccc(OCc2ccccc2)cn1 (stereo not given)
inactive: HL-60 15.7 µM | CCRF-CEM 13.5 µM | OVCAR-3 25.4 µM | KM12 18.6 µM | SF-268 21.9 µM | A498 20.3 µM | OVCAR-8 15.8 µM | UO-31 17.3 µM | SK-MEL-2 17.1 µM | SNB-75 27.4 µM | MDA-N 26.5 µM | HT-29 16.8 µM | UACC-257 19.1 µM | NCI-H460 15.4 µM | MOLT-4 16 µM | CAKI-1 17.2 µM | U-251 18.5 µM | IGROV-1 15.2 µM | K562 23.1 µM | MDA-MB-435 17.3 µM

N#Cc1c(N)nc2c3c1NC(=O)C(C(N)=O)C3c1ccccc1O2 (stereo not given)
inactive: HL-60 99.3 µM | CCRF-CEM 81.1 µM | OVCAR-3 > 100 µM | KM12 > 100 µM | SF-268 26.2 µM | A498 > 100 µM | OVCAR-8 42.5 µM | UO-31 > 100 µM | SK-MEL-2 > 100 µM | SNB-75 54.7 µM | MDA-N > 100 µM | HT-29 > 100 µM | UACC-257 > 100 µM | NCI-H460 > 100 µM | MOLT-4 > 100 µM | CAKI-1 > 100 µM | U-251 > 100 µM | IGROV-1 17.3 µM | K562 > 100 µM | MDA-MB-435 > 100 µM

— ChEMBL document CHEMBL1201862, “PubChem BioAssay data set” (2004)
